Source: US20120172359A1 (NOVARTIS AG, priority 2010, published 2012)
Counter-ions that a name gives are not always drawn.

Each molecule was assayed against Human BACE-1 (Homo sapiens, UniProt P56817) (assay: Test 1: Inhibition of Human BACE-1). Details: Test 1; recombinant BACE-1 (extracellular domain), acetate buffer pH 4.5, 1 hour with test compound at room temperature, fluorescence-quenched peptide substrate; read-out: Bace IC50.
Assay type: biochemical

Chain of Human BACE-1 (P56817 46-457 limits assumed): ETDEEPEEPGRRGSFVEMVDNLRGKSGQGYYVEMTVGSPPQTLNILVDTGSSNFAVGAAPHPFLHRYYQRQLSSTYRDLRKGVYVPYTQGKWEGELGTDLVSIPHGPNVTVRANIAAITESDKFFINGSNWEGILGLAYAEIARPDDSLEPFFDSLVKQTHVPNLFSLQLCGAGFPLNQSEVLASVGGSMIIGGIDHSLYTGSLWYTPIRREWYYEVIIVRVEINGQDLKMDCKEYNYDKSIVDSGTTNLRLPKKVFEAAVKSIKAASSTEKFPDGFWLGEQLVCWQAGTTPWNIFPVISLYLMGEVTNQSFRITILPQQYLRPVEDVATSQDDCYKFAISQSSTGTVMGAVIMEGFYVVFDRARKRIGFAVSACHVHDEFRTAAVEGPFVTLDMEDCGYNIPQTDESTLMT

| Structure (SMILES) | IC50 [nM] |
| --- | --- |
| Cn1ccnc1C(=O)Nc1ccc(F)c([C@]2(C(F)F)COCC(N)=N2)c1 [Example 133, 1-Methyl-1H-imidazole-2 carboxylic acid [3-((R)-5-amino-3 difluoromethyl-3,6-dihydro-2H [1,4]oxazin-3-yl)-4-fluoro-phenyl]-amide hydrochloride] | 1000 |
| NC1=N[C@@](c2cc(NC(=O)c3ccc(O)nn3)ccc2F)(C(F)F)COC1 [Example 134, 6-Hydroxy-pyridazine-3-carboxylic acid [3-((R)-5-amino-3-difluoromethyl-3,6-dihydro-2H-[1,4]oxazin-3-yl)-4-fluoro-phenyl]-amide hydrochloride] | 260 |
| COCCOc1cnc(C(=O)Nc2ccc(F)c([C@]3(C(F)F)COCC(N)=N3)c2)cn1 [Example 135, 5-(2-Methoxy-ethoxy)-pyrazine-2-carboxylic acid [3-((R)-5-amino-3-difluoromethyl-3,6-dihydro-2H-[1,4]oxazin-3-yl)-4-fluoro-phenyl]-amide hydrochloride] | 45 |
| NC1=N[C@@](c2cc(NC(=O)c3cnc(OCCF)cn3)ccc2F)(C(F)F)COC1 [Example 136, 5-(2-Fluoro-ethoxy)-pyrazine-2-carboxylic acid [3-((R)-5-amino-3-difluoromethyl-3,6-dihydro-2H-[1,4]oxazin-3-yl)-4-fluoro-phenyl]-amide hydrochloride] | 130 |
| NC1=N[C@@](c2cc(NC(=O)c3ccc(Cl)cn3)ccc2F)(C(F)F)COC1 [Example 137, 5-Chloro-pyridine-2-carboxylic acid [3-((R)-5-amino-3-difluoromethyl-3,6-dihydro-2H-[1,4]oxazin-3-yl)-4-fluoro-phenyl]-amide hydrochloride] | 30 |
| NC1=N[C@@](c2cc(NC(=O)c3ccc(OC(F)F)cn3)ccc2F)(C(F)F)COC1 [Example 138, 5-Difluoromethoxy-pyridine-2-carboxylic acid [3-((R)-5-amino-3-difluoromethyl-3,6-dihydro-2H-[1,4]oxazin-3-yl)-4-fluoro-phenyl]-amide hydrochloride] | 42 |
| NC1=N[C@@](c2cc(NC(=O)c3ccc(OCF)cn3)ccc2F)(C(F)F)COC1 [Example 139, 5-Fluoromethoxy-pyridine-2-carboxylic acid [3-((R)-5-amino-3-difluoromethyl-3,6-dihydro-2H-[1,4]oxazin-3-yl)-4-fluoro-phenyl]-amide] | 75 |
| NC1=N[C@@](c2cc(NC(=O)c3ncc(Cl)cc3F)ccc2F)(C(F)F)COC1 [Example 140, 5-Chloro-3-fluoro-pyridine-2-carboxylic acid [3-((R)-5-amino-3-difluoromethyl-3,6-dihydro-2H-[1,4]oxazin-3-yl)-4-fluoro-phenyl]-amide] | 43 |
| NC1=N[C@@](c2cc(NC(=O)c3cnc(Cl)cn3)ccc2F)(C(F)F)COC1 [Example 141, 5-Chloro-pyrazine-2-carboxylic acid [3-((R)-5-amino-3-difluoromethyl-3,6-dihydro-2H-[1,4]oxazin-3-yl)-4-fluoro-phenyl]-amide] | 33 |
| Cc1cc(C(=O)Nc2ccc(F)c([C@]3(C(F)F)COCC(N)=N3)c2)n[nH]1 [Example 142, 5-Methyl-1H-pyrazole-3-carboxylic acid [3-((R)-5-amino-3-difluoromethyl-3,6-dihydro-2H-[1,4]oxazin-3-yl)-4-fluoro-phenyl]-amide hydrochloride] | 820 |
| Cc1ccc(C(=O)Nc2ccc(F)c([C@]3(C(F)F)COCC(N)=N3)c2)nc1 [Example 143, 5-Methyl-pyridine-2-carboxylic acid [3-((R)-5-amino-3-difluoromethyl-3,6-dihydro-2H-[1,4]oxazin-3-yl)-4-fluoro-phenyl]-amide hydrochloride] | 110 |
| NC1=N[C@@](c2cc(NC(=O)c3cnc(O)cn3)ccc2F)(C(F)F)COC1 [Example 145, 5-Hydroxy-pyrazine-2-carboxylic acid [3-((R)-5-amino-3-difluoromethyl-3,6-dihydro-2H-[1,4]oxazin-3-yl)-4-fluoro-phenyl]-amide hydrochloride] | 340 |
| COc1cnc(C(=O)Nc2ccc(F)c([C@]3(C(F)F)COCC(N)=N3)c2)cn1 [Example 146, 5-Methoxy-pyrazine-2-carboxylic acid [3-((R)-5-amino-3-difluoromethyl-3,6-dihydro-2H-[1,4]oxazin-3-yl)-4-fluoro-phenyl]-amide hydrochloride] | 100 |
| Cc1nc(C(=O)Nc2ccc(F)c([C@]3(C(F)F)COCC(N)=N3)c2)cs1 [Example 148, 2-Methyl-thiazole-4-carboxylic acid [3-((R)-5-amino-3-difluoromethyl-3,6-dihydro-2H-[1,4]oxazin-3-yl)-4-fluoro-phenyl]-amide hydrochloride] | 940 |
| Cc1cnc(C(=O)Nc2ccc(F)c([C@]3(C(F)F)COCC(N)=N3)c2)s1 [Example 149, 5-Methyl-thiazole-2-carboxylic acid [3-((R)-5-amino-3-difluoromethyl-3,6-dihydro-2H-[1,4]oxazin-3-yl)-4-fluoro-phenyl]-amide hydrochloride] | 700 |
| Cn1ccc(C(=O)Nc2ccc(F)c([C@]3(C(F)F)COCC(N)=N3)c2)n1 [Example 150, 1-Methyl-1H-pyrazole-3-carboxylic acid [3-((R)-5-amino-3-difluoromethyl-3,6-dihydro-2H-[1,4]oxazin-3-yl)-4-fluoro-phenyl]-amide hydrochloride] | 290 |
| Cn1cc([N+](=O)[O-])c(C(=O)Nc2ccc(F)c([C@]3(C(F)F)COCC(N)=N3)c2)n1 [Example 151, 1-Methyl-4-nitro-1H-pyrazole-3-carboxylic acid [3-((R)-5-amino-3-difluoromethyl-3,6-dihydro-2H-[1,4]oxazin-3-yl)-4-fluoro-phenyl]-amide hydrochloride] | 1200 |
| C[C@@]1(c2cc(NC(=O)c3ncc(Cl)cc3N)ccc2F)CO[C@@](C)(C(F)(F)F)C(N)=N1 [Example 153, 3-Amino-5-chloro-pyridine-2-carboxylic acid [3-((3R,6R)-5-amino-3,6-dimethyl-6-trifluoro-methyl-3,6-dihydro-2H-[1,4]oxazin-3-yl)-4-fluoro-phenyl]amide] | 8 |
| CC1(c2cc(NC(=O)c3ncc(C(F)(F)F)cc3Cl)ccc2F)N=C(N)COCC1(F)F (stereo not drawn) [Example 154, 3-Chloro-5-trifluoromethyl-pyridine-2-carboxylic acid [3-(3-amino-6,6-difluoro-5-methyl-2,5,6,7-tetrahydro-[1,4]oxazepin-5-yl)-4-fluoro-phenyl]-amide] | 120 |
| COc1cc(Br)cnc1C(=O)Nc1ccc(F)c(C2(C)N=C(N)COCC2(F)F)c1 (stereo not drawn) [Example 155, 5-Bromo-3-methoxy-pyridine-2-carboxylic acid [3-(3-amino-6,6-difluoro-5-methyl-2,5,6,7-tetrahydro-[1,4]oxazepin-5-yl)-4 fluoro-phenyl]-amide] | 180 |
| CC1(c2cc(NC(=O)c3ccc(C#N)cn3)ccc2F)N=C(N)COCC1(F)F (stereo not drawn) [Example 156, 5-Cyano-pyridine-2-carboxylic acid [3-(3-amino-6,6-difluoro-5 methyl-2,5,6,7-tetrahydro[1,4]oxazepin-5-yl)-4 fluoro-phenyl]-amide] | 34 |
| NC1=N[C@@](c2cc(NC(=O)c3cc4cncnc4[nH]3)ccc2F)(C(F)F)COC1 [Example 157, 7H-Pyrrolo[2,3-d]pyrimidine-6-carboxylic acid [3-((R)-5-amino-3-difluoromethyl-3,6-dihydro-2H-[1,4]oxazin-3-yl)-4-fluoro-phenyl]-amide] | 5200 |
| COCCOc1cnc(C(=O)Nc2ccc(F)c([C@]3(C(F)F)COCC(N)=N3)c2)c(N)n1 [Example 158, 3-Amino-5-(2-methoxy-ethoxy)-pyrazine-2-carboxylic acid [3-((R)-5-amino-3-difluoromethyl-3,6-dihydro-2H-[1,4]oxazin-3-yl)-4-fluoro-phenyl]amide] | 18 |
| CCc1ccc(C(=O)Nc2ccc(F)c([C@]3(C(F)F)COCC(N)=N3)c2)nc1 [Example 159] | 130 |
| NC1=N[C@@](c2cc(NC(=O)c3ncc(Cl)cc3N)ccc2F)(C(F)F)COC1 [Example 160, 3-Amino-5-chloro-pyridine-2-carboxylic acid [3-((R)-5-amino-3-difluoromethyl-3,6-dihydro-2H-[1,4]oxazin-3-yl)-4-fluoro-phenyl]-amide] | 12 |
| COc1cnc(C(=O)Nc2ccc(F)c([C@]3(C(F)F)COCC(N)=N3)c2)c(Cl)c1 [Example 161, 3-Chloro-5-methoxy-pyridine-2-carboxylic acid [3-((R)-5-amino-3-difluoromethyl-3,6-dihydro-2H-[1,4]oxazin-3-yl)-4-fluoro-phenyl]-amide] | 66 |
| NC1=N[C@@](c2cc(NC(=O)c3ccc(=O)[nH]c3)ccc2F)(C(F)F)COC1 [Example 162, 6-Oxo-1,6-dihydro-pyridine-3-carboxylic acid [3-((R)-5-amino-3-difluoromethyl-3,6-dihydro-2H-[1,4]oxazin-3-yl)-4-fluoro-phenyl]-amide] | 8500 |
| NC1=N[C@@](c2cc(NC(=O)c3cc4cccn4cn3)ccc2F)(C(F)F)COC1 [Example 163, Pyrrolo[1,2-c]pyrimidine-3-carboxylic acid [3-((R)-5-amino-3-difluoromethyl-3,6-dihydro-2H-[1,4]oxazin-3-yl)-4-fluoro-phenyl]-amide] | 680 |
| NC1=N[C@@](c2cc(NC(=O)c3ncc(Br)cc3N)ccc2F)(C(F)F)COC1 [Example 165, 3-Amino-5-bromo-pyridine-2-carboxylic acid [3-((R)-5-amino-3-difluoromethyl-3,6-dihydro-2H-[1,4]oxazin-3-yl)-4-fluoro-phenyl]-amide] | 8 |
| CCn1ccnc1C(=O)Nc1ccc(F)c([C@]2(C(F)F)COCC(N)=N2)c1 [Example 166, 1-Ethyl-1H-imidazole-2-carboxylic acid [3-((R)-5-amino-3-difluoromethyl-3,6-dihydro-2H-[1,4]oxazin-3-yl)-4-fluoro-phenyl]amide] | 1200 |
